Measurements from patent publication US8034811B2, “Hydroxamic acid esters and pharmaceutical use thereof” (Leo Pharma A/S, priority 2003, dated 2011).

Each molecule was assayed against T1, human intracellular domain of KDR (VEGF Receptor-2) (Homo sapiens, UniProt P35968) (assay: In vitro KDR kinase assay). Conditions: IC50 as molar concentration; GST-KDR-cyt, substrate phospholipase Cγ, ATP 100 μM, 30 min room temperature, time-resolved fluorometry.
T1 construct: A fusion protein containing the intracellular domain (amino acids 793 to 1357) of the KDR and N-terminally tagged to GST; made in house; host or cells: Sf9 insect cells (baculovirus, pDEST20) for GST-KDR-cyt; E. coli BL21 (pGEX-4T-1) for GST-PLCγ
T1 sequence (P35968 794-1356 limits assumed): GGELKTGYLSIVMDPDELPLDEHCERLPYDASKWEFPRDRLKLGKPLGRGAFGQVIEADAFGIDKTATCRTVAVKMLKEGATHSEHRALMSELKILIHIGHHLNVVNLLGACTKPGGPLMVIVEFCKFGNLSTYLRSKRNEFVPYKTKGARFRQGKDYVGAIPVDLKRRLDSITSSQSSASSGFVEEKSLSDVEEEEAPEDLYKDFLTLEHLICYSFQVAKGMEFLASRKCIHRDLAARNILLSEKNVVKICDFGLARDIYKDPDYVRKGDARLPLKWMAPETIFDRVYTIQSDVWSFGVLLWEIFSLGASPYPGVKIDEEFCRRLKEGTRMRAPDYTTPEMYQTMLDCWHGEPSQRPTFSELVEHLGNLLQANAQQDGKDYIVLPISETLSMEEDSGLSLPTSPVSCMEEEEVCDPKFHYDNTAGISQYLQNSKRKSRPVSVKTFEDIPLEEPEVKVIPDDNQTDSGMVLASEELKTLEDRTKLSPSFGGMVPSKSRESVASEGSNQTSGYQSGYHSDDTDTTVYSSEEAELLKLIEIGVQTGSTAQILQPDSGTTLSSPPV
Assay type: biochemical
How it was run: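 Sf9-expressed, constitutively active human KDR intracellular domain, diluted 3000–3500 fold, incubated 30 min at room temperature with 100 μM ATP on phospholipase Cγ-coated wells in TBS pH 7.4 with Mg acetate, compounds up to 10 μM, 0.1% DMSO max. Phosphotyrosine detected by Eu-PY-20 time-resolved fluorescence; IC50 by linear interpolation around 50% inhibition.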
In the case of `O=C(NOCc1ccc(Cl)cc1Cl)c1ccccc1NCc1ccncc1` [Compound 14, N-(2,4-Dichloro-benzyloxy)-2-[(pyridin-4-ylmethyl)-amino]-benzamide], the IC50 is reported as 0.00631 µM. With `CCOC(=O)CNC(=O)Nc1cc(CNc2ccccc2C(=O)NOCc2ccc(C#N)cc2)ccn1` [compound 214] the IC50 was 0.0501 µM. In the case of `O=C(NOCc1cccc(OC(F)(F)F)c1)c1ccccc1NCc1ccncc1` [Compound 67, 2-[(Pyridin-4-ylmethyl)-amino]-N-(3-trifluoromethoxy-benzyloxy)-benzamide], the IC50 is reported as 0.0501 µM. For `CNC(=O)Nc1cc(CNc2ccccc2C(=O)NOCc2ccc(C)c(F)c2F)ccn1` [Compound 213, N-(2,3-Difluoro-4-methyl-benzyloxy)-2-{[2-(3-methyl-ureido)-pyridin-4-ylmethyl]-amino}-benzamide], the IC50 was 0.00794 µM. `O=C(NOCC1CCCC1)c1cccnc1NCc1ccncc1` [Compound 164, N-Cyclopentylmethoxy-2-[(pyridin-4-ylmethyl)-amino]-nicotinamide] showed an IC50 of 0.00794 µM. Work on `O=C(NOCc1ccccc1I)c1cccnc1NCc1ccncc1` [Compound 160, N-(2-Iodo-benzyloxy)-2-[(pyridin-4-ylmethyl)-amino]-nicotinamide] yielded an IC50 of 0.0631 µM. `O=C(NOCc1ccc(OC(F)(F)F)cc1)c1ccccc1NCc1ccncc1` [Compound 68, 2-[(Pyridin-4-ylmethyl)-amino]-N-(4-trifluoromethoxy-benzyloxy)-benzamide] was tested, and the IC50 was 0.0794 µM. With `O=C(NOCc1cc(Cl)nc(Cl)c1)c1ccccc1NCc1ccncc1` [Compound 104, N-(2,6-Dichloro-pyridin-4-ylmethoxy)-2-[(pyridin-4-ylmethyl)-amino]-benzamide] the IC50 was 0.0631 µM. In the case of `CNC(=O)Nc1cc(CNc2ccccc2C(=O)NOCc2ccc(C#N)cc2OC)ccn1` [Compound 211, N-(4-Cyano-2-methoxy-benzyloxy)-2-{[2-(3-methyl-ureido)-pyridin-4-ylmethyl]-amino}-benzamide], the IC50 is reported as 0.02 µM. `O=C(NOCc1ccc(CO)cc1)c1ccccc1NCc1ccncc1` [Compound 58, N-(4-Hydroxymethyl-benzyloxy)-2-[(pyridin-4-ylmethyl)-amino]-benzamide] showed an IC50 of 0.0631 µM. In the case of `N#Cc1ccc(CONC(=O)c2ccccc2NCc2ccc3c(c2)CCO3)cc1` [Compound 196, N-(4-Cyano-benzyloxy)-2-[(2,3-dihydro-benzofuran-5-ylmethyl)-amino]-benzamide], the IC50 is reported as 0.0794 µM. Work on `O=C(NOCc1ccccc1OC(F)F)c1ccccc1NCc1ccncc1` [Compound 69, N-(2-Difluoromethoxy-benzyloxy)-2-[(pyridin-4-ylmethyl)-amino]-benzamide] yielded an IC50 of 0.00631 µM. For `O=C(NOCCOc1ccccc1)c1ccccc1NCc1ccncc1` [Compound 30, N-(2-Phenoxy-ethoxy)-2-[(pyridin-4-ylmethyl)-amino]-benzamide], the IC50 was 1 µM. For `O=C(NOCc1ccccc1Br)c1cccnc1NCc1ccncc1` [Compound 161, N-(2-Bromo-benzyloxy)-2-[(pyridin-4-ylmethyl)-amino]-nicotinamide], the IC50 was 0.0631 µM. For `O=C(NOCCCc1ccccc1)c1ccccc1NCc1ccncc1` [Compound 31, N-(3-Phenyl-propoxy)-2-[(pyridin-4-ylmethyl)-amino]-benzamide], the IC50 was 0.126 µM. In the case of `COC(=O)c1cccc(CONC(=O)c2ccccc2NCc2ccncc2)c1` [Compound 87, 3-{2-[(Pyridin-4-ylmethyl)-amino]-benzoylaminooxymethyl}-benzoic acid methyl ester], the IC50 is reported as 0.1 µM. Molecule `O=C(NOCc1cccc(Cl)c1Cl)c1ccccc1NCc1ccncc1` [Compound 18, N-(2,3-Dichloro-benzyloxy)-2-[(pyridin-4-ylmethyl)-amino]-benzamide] has an IC50 of 0.02 µM. `N#Cc1ccc(CONC(=O)c2ccccc2NCc2ccncc2)c2ccccc12` [Compound 82, N-(4-Cyano-naphthalen-1-ylmethoxy)-2-[(pyridin-4-ylmethyl)-amino]-benzamide] showed an IC50 of 0.0158 µM. Work on `CC(Nc1ccccc1C(=O)NOCc1ccc(C#N)cc1)c1ccncc1` (stereo not shown) [compound 244] yielded an IC50 of 0.0631 µM. Molecule `O=C(NOCc1cccc(I)c1)c1ccccc1NCc1ccncc1` [Compound 46, N-(3-Iodo-benzyloxy)-2-[(pyridin-4-ylmethyl)-amino]-benzamide] has an IC50 of 0.0631 µM. With `O=C(O)CNC(=O)Nc1cc(CNc2ccccc2C(=O)NOCC2CCCC2)ccn1` [compound 217] the IC50 was 0.00794 µM. For `O=C(NOCc1cccc(Cl)c1F)c1ccccc1NCc1ccncc1` [Compound 25, N-(3-Chloro-2-fluoro-benzyloxy)-2-[(pyridin-4-ylmethyl)-amino]-benzamide], the IC50 was 0.0501 µM. Molecule `Cc1ccc(CONC(=O)c2ccccc2NCc2ccncc2)cc1` [Compound 47, N-(4-Methyl-benzyloxy)-2-[(pyridin-4-ylmethyl)-amino]-benzamide] has an IC50 of 0.0158 µM. `O=C(NOCc1csc(-c2ccccc2)n1)c1ccccc1NCc1ccncc1` [Compound 107, N-(2-Phenyl-thiazol-4-ylmethoxy)-2-[(pyridin-4-ylmethyl)-amino]-benzamide] gave an IC50 of 0.1 µM. Work on `CCCc1cc(CONC(=O)c2ccccc2NCc2ccncc2)on1` [Compound 110, N-(3-Propyl-isoxazol-5-ylmethoxy)-2-[(pyridin-4-ylmethyl)-amino]-benzamide] yielded an IC50 of 0.0794 µM.
